Values joined by “and” are separate entries in the source; they are usually repeats but may differ in a detail not shown here. Identical values can stand only once. Toxic doses and inconclusive results are not listed. Rule for the calls: active = survival T/C of 150% or more; inactive = T/C below 125% in these data. Peptide text beside a SMILES is read from it. * marks the point of attachment. Cbz = O=C(OCc1ccccc1)*
Test system: P388 leukemia ip, CD2F1 mice, survival T/C
Experiment: NCI In Vivo Anticancer Drug Screen. Data for tumor model P388 Leukemia (intraperitoneal) in CD2F1 (CDF1) mice
Settings: endpoint: median survival time, higher = longer survival
How it was run: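 Mice carrying the transplanted tumor received test compound or vehicle. Survival was recorded in each group, and the value is the treated-group measurement divided by that of the vehicle-treated control group.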

[1] = dose: 50.0 mg/kg/injection, schedule: Q01DX005 (ip), vehicle: Klucel (hydroxypropylcellulose) (HPC)
[2] = dose: 50.0 mg/kg/injection, schedule: Q01DX005 (ip), vehicle: saline with Tween-80
[3] = dose: 100.0 mg/kg/injection, schedule: Q01DX005 (ip), vehicle: saline with Tween-80
[4] = dose: 60.0 mg/kg/injection, schedule: Q01DX005 (ip), vehicle: saline with Tween-80
[5] = dose: 120.0 mg/kg/injection, schedule: Q01DX005 (ip), vehicle: saline with Tween-80
[6] = dose: 240.0 mg/kg/injection, schedule: Q01DX005 (ip), vehicle: saline with Tween-80
[7] = dose: 100.0 mg/kg/injection, schedule: Q01DX005 (ip), vehicle: Klucel (hydroxypropylcellulose) (HPC)
[8] = dose: 200.0 mg/kg/injection, schedule: Q01DX005 (ip), vehicle: Klucel (hydroxypropylcellulose) (HPC)
[9] = dose: 25.0 mg/kg/injection, schedule: Q01DX009 (ip), vehicle: saline with Tween-80
[10] = dose: 50.0 mg/kg/injection, schedule: Q01DX009 (ip), vehicle: saline with Tween-80
[11] = dose: 100.0 mg/kg/injection, schedule: Q01DX009 (ip), vehicle: saline with Tween-80
[12] = dose: 200.0 mg/kg/injection, schedule: Q01DX009 (ip), vehicle: saline with Tween-80
[13] = dose: 200.0 mg/kg/injection, schedule: Q01DX005 (ip), vehicle: saline with Tween-80
[14] = dose: 25.0 mg/kg/injection, schedule: Q01DX009 (ip), vehicle: saline
[15] = dose: 50.0 mg/kg/injection, schedule: Q01DX009 (ip), vehicle: saline
[16] = dose: 100.0 mg/kg/injection, schedule: Q01DX009 (ip), vehicle: saline
[17] = dose: 200.0 mg/kg/injection, schedule: Q01DX009 (ip), vehicle: saline
[18] = dose: 50.0 mg/kg/injection, schedule: Q01DX009 (ip), vehicle: suspension in saline

Measured: T/C

N#CCc1ccccc1-c1ccccc1
inactive: dose: 12.5 mg/kg/injection, schedule: Q01DX005 (ip), vehicle: Klucel (hydroxypropylcellulose) (HPC) 99 % of control | dose: 25.0 mg/kg/injection, schedule: Q01DX005 (ip), vehicle: Klucel (hydroxypropylcellulose) (HPC) 94 % of control | [1] 99 % of control

CCCCCC(CN(C)C)C(=O)/C=C/c1ccc(C)cc1 (configuration not stated)
inactive: dose: 12.5 mg/kg/injection, schedule: Q01DX005 (ip), vehicle: saline with Tween-80 98 % of control | dose: 25.0 mg/kg/injection, schedule: Q01DX005 (ip), vehicle: saline with Tween-80 100 % of control | [2] 106 % of control and 97 % of control | [3] 98 % of control

COc1cc(C2c3cc4c(cc3OC3(O)COC(=O)C23)OCO4)cc(OC)c1OC (configuration not stated)
inactive: [4] 88 % of control | [5] 91 % of control | [6] 86 % of control

O=C(NC(Cc1cnc[nH]1)C(=O)NC(Cc1ccc(O)cc1)C(=O)O)OCc1ccccc1 (stereo not drawn) (Cbz-His-Tyr-OH; configuration not given here)
inactive: [1] 93 % of control | [7] 95 % of control | [8] 92 % of control

CC(C)(C)c1ccc(OP(=S)(N/N=C/c2ccccc2O)Oc2ccc(C(C)(C)C)cc2)cc1
inactive: dose: 12.5 mg/kg/injection, schedule: Q01DX009 (ip), vehicle: saline with Tween-80 94 % of control | [9] 88 % of control | [10] 93 % of control and 95 % of control | [11] 95 % of control | [12] 95 % of control

N=C(N)c1ccc(N=Nc2c(O)ccc3c2[nH]c2ccccc23)cc1
inactive: [2] 101 % of control | [3] 98 % of control | [13] 106 % of control

CCN(CC)CCOC(C)(C)C#CC(C)(C)O
inactive: [2] 100 % of control | [3] 99 % of control | [13] 99 % of control

C=CC(=O)NC(O)C(Cl)(Cl)Cl (configuration not stated)
inactive: [1] 98 % of control | [7] 98 % of control | [8] 102 % of control

N=C(N)SCCCN
inactive: [14] 95 % of control | [15] 103 % of control | [16] 112 % of control | [17] 112 % of control

COC(=O)c1nnn(-c2cccc(C(F)(F)F)c2)c1C(=O)c1ccc(Cl)c(Cl)c1
inactive: [4] 99 % of control | [5] 100 % of control | [6] 92 % of control

C=CCSc1nc2ccc(NCn3c(=S)sc4cc([N+](=O)[O-])ccc43)cc2s1
inactive: dose: 100.0 mg/kg/injection, schedule: Q04DX003 (ip), vehicle: Klucel (hydroxypropylcellulose) (HPC) 90 % of control | dose: 200.0 mg/kg/injection, schedule: Q04DX003 (ip), vehicle: Klucel (hydroxypropylcellulose) (HPC) 86 % of control

c1ccc(CN2CC[N+](Cc3ccccc3)=C2C2=[N+](Cc3ccccc3)CCN2Cc2ccccc2)cc1
inactive: dose: 12.5 mg/kg/injection, schedule: Q01DX009 (ip), vehicle: suspension in saline 89 % of control | dose: 25.0 mg/kg/injection, schedule: Q01DX009 (ip), vehicle: suspension in saline 96 % of control | [18] 91 % of control

CCCN1C(=O)C2C3C=CC(C2C1=O)C1C2C(=O)N(CCC)C(=O)C2C31 (configuration not stated)
inactive: dose: 100.0 mg/kg/injection, schedule: Q01DX001 (ip), vehicle: saline with Tween-80 92 % of control | dose: 200.0 mg/kg/injection, schedule: Q01DX001 (ip), vehicle: saline with Tween-80 96 % of control | dose: 400.0 mg/kg/injection, schedule: Q01DX001 (ip), vehicle: saline with Tween-80 101 % of control

COC(=O)CC1c2ccc3cc(OC)ccc3c2CCC1(C)C(=O)OC (configuration not stated)
inactive: [2] 103 % of control | [3] 96 % of control | [13] 98 % of control

O=C(/C=C/c1ccc([N+](=O)[O-])cc1)Cc1ccccc1
inactive: dose: 100.0 mg/kg/injection, schedule: Q04DX002 (ip), vehicle: saline 97 % of control | dose: 200.0 mg/kg/injection, schedule: Q04DX002 (ip), vehicle: saline 104 % of control | dose: 400.0 mg/kg/injection, schedule: Q04DX002 (ip), vehicle: saline 100 % of control

COc1ccc(CSC(=S)Nc2ccc(Cl)c(C(F)(F)F)c2)cc1
inactive: [9] 95 % of control | [14] 104 % of control | [10] 98 % of control | [15] 109 % of control | [18] 106 % of control | [11] 100 % of control | [16] 104 % of control | dose: 100.0 mg/kg/injection, schedule: Q01DX009 (ip), vehicle: suspension in saline 124 % of control | [12] 91 % of control | dose: 200.0 mg/kg/injection, schedule: Q01DX009 (ip), vehicle: suspension in saline 124 % of control

CN1CCN(CCCNN)CC1
inactive: dose: 50.0 mg/kg/injection, schedule: Q01DX005 (ip), vehicle: saline 93 % of control | dose: 100.0 mg/kg/injection, schedule: Q01DX005 (ip), vehicle: saline 101 % of control | dose: 200.0 mg/kg/injection, schedule: Q01DX005 (ip), vehicle: saline 101 % of control

CC(C)C(Sc1nc(N)nc2nc[nH]c12)C(=O)O (configuration not stated)
inactive: [11] 95 % of control | dose: 100.0 mg/kg/injection, schedule: Q04DX003 (ip), vehicle: saline with Tween-80 95 % of control | [12] 100 % of control | dose: 200.0 mg/kg/injection, schedule: Q04DX003 (ip), vehicle: saline with Tween-80 100 % of control | dose: 400.0 mg/kg/injection, schedule: Q01DX009 (ip), vehicle: saline with Tween-80 104 % of control | dose: 400.0 mg/kg/injection, schedule: Q04DX003 (ip), vehicle: saline with Tween-80 95 % of control

C1=CN2CC(c3ccccc3)=NNC2c2ccccc21 (configuration not stated)
inactive: dose: 100.0 mg/kg/injection, schedule: Q04DX002 (ip), vehicle: Klucel (hydroxypropylcellulose) (HPC) 107 % of control | dose: 200.0 mg/kg/injection, schedule: Q04DX002 (ip), vehicle: Klucel (hydroxypropylcellulose) (HPC) 99 % of control

CCC(C)C(NC(=O)OCc1ccccc1)C(=O)NC(CCSC)C(=O)O (stereo not drawn) (Cbz-Ile-Met-OH; configuration not given here)
inactive: [1] 99 % of control | [7] 100 % of control | [8] 96 % of control

CC(c1ccc(O)cc1)c1cc2c(cc1OCCO)OCO2 (configuration not stated)
inactive: [2] 94 % of control | [3] 91 % of control | [13] 92 % of control

COCCOC
inactive: [15] 95 % of control | [16] 98 % of control | [17] 100 % of control | dose: 400.0 mg/kg/injection, schedule: Q01DX009 (ip), vehicle: saline 100 % of control

CS(=O)(=O)OCC#CCOS(C)(=O)=O
inactive: dose: 1.56 mg/kg/injection, schedule: Q01DX009 (ip), vehicle: Klucel (hydroxypropylcellulose) (HPC) 109 % of control | dose: 3.12 mg/kg/injection, schedule: Q01DX009 (ip), vehicle: Klucel (hydroxypropylcellulose) (HPC) 120 % of control

N#CCCCOCCCOCCCOCCCOCCCOCCCC#N
inactive: dose: 8.75 mg/kg/injection, schedule: Q01DX005 (ip), vehicle: saline with Tween-80 102 % of control | dose: 17.5 mg/kg/injection, schedule: Q01DX005 (ip), vehicle: saline with Tween-80 100 % of control | dose: 35.0 mg/kg/injection, schedule: Q01DX005 (ip), vehicle: saline with Tween-80 100 % of control | [2] 121 % of control | dose: 70.0 mg/kg/injection, schedule: Q01DX005 (ip), vehicle: saline with Tween-80 108 % of control | [13] 110 % of control

From PubChem BioAssay AID330 (DTP/NCI, 2004)
